According to ChEMBL document CHEMBL4041501, “Isolation of Acacetin from Calea urticifolia with Inhibitory Properties against Human Monoamine Oxidase-A and -B” (J Nat Prod, 2016):

Experiments:
[1] = target: T1, Amine oxidase [flavin-containing] A (Homo sapiens, UniProt P21397); assay: Inhibition of recombinant human MAO-A assessed as reduction in 4-hydroxyquinoline formation using kynuramine as substrate after 20 mins by fluorometric assay
T1 sequence (P21397 whole entry): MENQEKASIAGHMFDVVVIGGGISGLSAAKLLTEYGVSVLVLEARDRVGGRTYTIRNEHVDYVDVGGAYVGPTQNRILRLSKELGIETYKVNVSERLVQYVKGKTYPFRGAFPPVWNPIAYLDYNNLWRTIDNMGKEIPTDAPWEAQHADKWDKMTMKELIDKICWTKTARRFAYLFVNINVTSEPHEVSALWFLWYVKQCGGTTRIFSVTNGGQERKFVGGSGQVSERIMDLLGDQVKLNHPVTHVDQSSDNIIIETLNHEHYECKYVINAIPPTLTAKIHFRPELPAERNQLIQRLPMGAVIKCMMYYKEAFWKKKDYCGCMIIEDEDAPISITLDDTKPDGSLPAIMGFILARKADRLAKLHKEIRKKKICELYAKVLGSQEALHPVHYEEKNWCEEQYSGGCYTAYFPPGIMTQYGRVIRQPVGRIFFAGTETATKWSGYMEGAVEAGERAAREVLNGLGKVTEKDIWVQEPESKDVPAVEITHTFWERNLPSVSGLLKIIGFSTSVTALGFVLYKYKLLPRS

[2] = target: T1, Amine oxidase [flavin-containing] A; assay: Competitive inhibition of recombinant human MAO-A assessed as reduction in 4-hydroxyquinoline formation using varying levels of kynuramine as substrate after 20 mins by Lineweaver-Burk plot analysis
[3] = target: T1, Amine oxidase [flavin-containing] A; assay: Time-dependent inhibition of recombinant human MAO-A assessed as reduction in 4-hydroxyquinoline formation at 0.5 uM using kynuramine as substrate preincubated up to 15 mins followed by substrate addition by fluorometric assay
[4] = target: T2, Amine oxidase [flavin-containing] B (Homo sapiens, UniProt P27338); assay: Time-dependent inhibition of recombinant human MAO-B assessed as reduction in 4-hydroxyquinoline formation at 0.2 uM using kynuramine as substrate preincubated up to 15 mins followed by substrate addition by fluorometric assay
T2 sequence (P27338 whole entry): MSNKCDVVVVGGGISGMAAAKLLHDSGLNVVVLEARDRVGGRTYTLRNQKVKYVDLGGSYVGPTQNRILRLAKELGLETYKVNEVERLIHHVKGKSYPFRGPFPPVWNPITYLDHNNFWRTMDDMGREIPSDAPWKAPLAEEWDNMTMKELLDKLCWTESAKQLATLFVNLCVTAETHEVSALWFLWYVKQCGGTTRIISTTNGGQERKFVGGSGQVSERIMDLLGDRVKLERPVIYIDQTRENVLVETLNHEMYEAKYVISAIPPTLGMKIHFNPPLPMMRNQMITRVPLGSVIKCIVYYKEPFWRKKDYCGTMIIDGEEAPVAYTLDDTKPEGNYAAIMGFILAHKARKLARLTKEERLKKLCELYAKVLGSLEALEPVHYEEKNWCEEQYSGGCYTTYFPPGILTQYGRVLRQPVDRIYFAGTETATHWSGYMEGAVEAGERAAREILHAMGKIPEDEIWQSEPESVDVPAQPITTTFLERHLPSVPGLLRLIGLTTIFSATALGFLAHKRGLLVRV

[5] = target: T1, Amine oxidase [flavin-containing] A; assay: Inhibition of recombinant human MAO-A at 15 uM after 20 mins relative to control
[6] = target: T2, Amine oxidase [flavin-containing] B; assay: Inhibition of recombinant human MAO-B at 5 uM after 20 mins relative to control
[7] = target: T1, Amine oxidase [flavin-containing] A; assay: Reversible inhibition of recombinant human MAO-A assessed as recovery of enzyme activity at 15 uM preincubated for 20 mins followed by overnight dialysis relative to control; design: scale not given: the % may be the effect or the level left; conditions: read-out: Activity
[8] = target: T2, Amine oxidase [flavin-containing] B; assay: Reversible inhibition of recombinant human MAO-B assessed as recovery of enzyme activity at 5 uM preincubated for 20 mins followed by overnight dialysis; design: scale not given: the % may be the effect or the level left
[9] = target: T1, Amine oxidase [flavin-containing] A; assay: Inhibition of recombinant human MAO-A after 30 mins
[10] = target: T2, Amine oxidase [flavin-containing] B; assay: Inhibition of recombinant human MAO-B after 30 mins

SMILES: COc1ccc(-c2cc(=O)c3c(O)cc(O)cc3o2)cc1 [ACACETIN]
- IC50 [1]: 0.121 µM
- Ki [2]: 0.0592 µM
- TDI [3]: Not Active
- TDI [4]: Not Active
- inhibition at 15 µM [5]: > 95%
- inhibition (INH) [6]: 90%
- activity at 15 µM [7]: > 90%
- Activity [8]: 90%

SMILES: O=C1C[C@@H](c2ccc(O)cc2)Oc2cc(O)cc(O)c21 [NARINGENIN]
- IC50 [9]: 955 µM
- IC50 [10]: 288 µM
